Where two headings read alike, the source gives them in different places.
Key:
CCR2 = molecular target: T1, CCR2 (Homo sapiens, UniProt P41597); assay: hCCR2 (125-I hMCP-1) small molecule binding assay on human PBMCs; details: 125I-MCP-1, human PBMCs
T1 construct: (leukophoresis pack); host or cells: human peripheral blood mononuclear cells (PBMCs) from a normal human leukophoresis pack
Method in brief: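 Ficoll-isolated human PBMCs pre-incubated 30 min or 1 h with compound at 0.333 μM final (0.67% DMSO), then incubated 30 min at room temperature with 150 pM 125I-hMCP-1 in RPMI/0.1% BSA/20 mM HEPES. Filter-bound radioactivity counted by gamma counter. 100% inhibition defined with 1 μM hMCP-1; IC50 plates run n=2.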

[1] = tested on: streptozotocin (STZ)-induced diabetic rat model; assay: Diabetic nephropathy rat model (STZ-induced), 24-hour urinary albumin excretion; type: in vivo; details: STZ diabetic male Wistar rats
Excerpt: A rat model of diabetic nephropathy was used to determine the renal protective effect of pharmacological inhibition of CCR2. The streptozotocin (STZ)-induced diabetic rat model has been extensively used for studying the progression of diabetic renal disease. STZ injection causes immediate destruction of pancreatic β-cells, consequently hyperglycemia and progression of nephropathy similar to that seen in human diabetes mellitus. Diabetes was induced in male Wistar rats by single administration of STZ (45 mp/kg, iv). Three days after the induction of diabetes, fasting blood glucose levels were assessed. Animals with fasting blood glucose levels higher than 200 mg/dL were included in the study. All the treatments were then initiated. 1,5-anhydro-2,3-dideoxy-3-{[(1R,3S)-3-isopropyl-3-({(1S,4S)-5-[6-(trifluoromethyl)pyrimidin-4-yl]-2,5-diazabicyclo[2.2.1]hept-2-yl}carbonyl)cyclopentyl]amino}-4-O-methyl-D-erythro-pentitol was administered at doses of 0.03, 0.3, 1, and 10 mg/kg (mpk) (in the chow) for 11 weeks. 24-hour urine collections were obtained at 1, 4, 8, and 11 weeks after the treatment for assessing 24-hour urinary albumin excretion (UAE).

[2] = 30 min preincubation, read-out: IC50 (nM) 30 min preinc

T1 sequence (P41597 whole entry): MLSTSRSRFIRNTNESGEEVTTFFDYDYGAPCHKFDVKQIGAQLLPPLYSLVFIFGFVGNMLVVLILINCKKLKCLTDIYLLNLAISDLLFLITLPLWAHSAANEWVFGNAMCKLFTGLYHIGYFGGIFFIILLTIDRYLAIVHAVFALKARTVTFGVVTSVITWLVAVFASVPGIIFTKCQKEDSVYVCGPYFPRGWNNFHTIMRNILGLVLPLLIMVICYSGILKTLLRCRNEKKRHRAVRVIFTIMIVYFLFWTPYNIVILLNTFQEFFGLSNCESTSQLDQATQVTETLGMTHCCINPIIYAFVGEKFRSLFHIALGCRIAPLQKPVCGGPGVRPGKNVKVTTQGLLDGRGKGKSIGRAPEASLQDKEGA

IC50 (CCR2; [2])	IC50 (CCR2; 1 hr preincubation, read-out: IC50 (nM) 1 hr preinc)	SMILES	24-hour urinary albumin excretion (UAE) ([1]; 0.03 mpk in the chow, week 11)	24-hour urinary albumin excretion (UAE) ([1]; 0.3 mpk in the chow, week 8)	24-hour urinary albumin excretion (UAE) ([1]; 0.3 mpk in the chow, week 11)	24-hour urinary albumin excretion (UAE) ([1]; 1 mpk in the chow, week 8)	24-hour urinary albumin excretion (UAE) ([1]; 1 mpk in the chow, week 11)	24-hour urinary albumin excretion (UAE) ([1]; 10 mpk in the chow, week 8)	24-hour urinary albumin excretion (UAE) ([1]; 10 mpk in the chow, week 11)
25.4 nM	3.68 nM	CO[C@@H]1COCC[C@@H]1N[C@@H]1CC[C@@](C(=O)N2C[C@@H]3C[C@H]2CN3c2cc(C(F)(F)F)ncn2)(C(C)C)C1 [Example 13, 1,5-anhydro-2,3-dideoxy-3-{[(1R,3S)-3-isopropyl-3-({(1S,4S)-5-[6-(trifluoromethyl)pyrimidin-4-yl]-2,5-diazabicyclo[2.2.1]hept-2-yl}carbonyl)cyclopentyl]amino}-4-O-methyl-D-erythro-pentitol]	2.17±1.31 mg/24 h	1.73±0.69 mg/24 h	1.96±0.85 mg/24 h	1.09±0.20 mg/24 h	1.66±0.65 mg/24 h	0.71±0.22 mg/24 h	1.02±0.32 mg/24 h
3.7 nM		CO[C@@H]1COCC[C@@H]1N[C@@H]1CC[C@@](C(=O)N2C[C@@H]3C(F)[C@H]2CN3C(=O)OC(C)(C)C)(C(C)C)C1 (stereo partly drawn) [Example 71, tert-butyl 7-fluoro-5-((1S,3R)-1-isopropyl-3-((3S,4S)-3-methoxy-tetrahydro-2H-pyran-4-ylamino)cyclopentanecarbonyl)-2,5-diaza-bicyclo[2.2.1]heptane-2-carboxylate]							

Reference: patent US8946413B2 (Pfizer Inc., priority 2008, dated 2015)
